According to patent publication US20220324796A1, “ANTIBIOTIC COMPOUNDS” (The General Hospital Corporation, priority 2019, published 2022):
Values after ≈ are worked out from the molar mass of the structure shown.

Key:
[1] = test system: MRSA strain MW2 persisters; test: Deep-seated mouse thigh infection model, bacterial load; format: in vivo; conditions: 30 mg/kg each agent, every 12 h for 3 days from 24 h post-infection
Procedure: Deep-seated mouse thigh infection model. […] Mice were euthanized at 96 h post-infection. […] Thighs were homogenized in PBS, serially diluted with PBS, and spot-plated on TSA plates.

MRSA MW2 [2] = test: Antimicrobial activity (MIC) of bithionol analogs; format: cell-based, S. aureus; conditions: for antimicrobial activity compared with bithionol: in words (FIGS. 5, 13, 14)
Procedure: (§1) Minimal inhibitory concentration (MIC) assay. The MICs of antibiotics were determined by the standard micro-dilution method recommended by the Clinical and Laboratory Standards Institute. MIC assays were conducted in biological triplicate.

MRSA MW2 cells = test: Bacterial membrane permeability assay (SYTOX Green); format: cell-based, S. aureus; conditions: for membrane activity compared with bithionol: in words (FIGS. 5, 13, 14); for SYTOX Green membrane permeabilization: MRSA MW2 exponential-phase cells and/or persisters, in words
Procedure: Bacterial membrane permeability assay. Exponential-phase or stationary-phase S. aureus MW2 cells prepared as described above under Killing kinetics assay and Persister killing assay, respectively, were washed 3 times with the same volume of PBS. The washed cells were adjusted to OD600=0.4 with PBS. SYTOX Green (Molecular Probes, Waltham, Mass., USA) was added to 10 mL of the diluted bacterial suspension to a final concentration of 5 μM and incubated for 30 min at room temperature in the dark. 50 μl of the bacterial/SYTOX Green suspension was mixed with 50 μl of phosphate buffered saline (PBS) containing twice the desired concentrations of compounds in black, clear-bottom, 96-well plates (Corning no. 3904). Fluorescence was measured at room temperature using a spectrophotometer (SpectraMax M2, Molecular Devices) with excitation and emission wavelengths of 485 nm and 525 nm, respectively. All experiments were conducted in biological triplicate.

[3] = test system: VRSA strain VRS1 persisters; test: Persister killing assay; format: cell-based, S. aureus; conditions: linezolid and daptomycin at 100× MIC; bithionol at indicated concentrations (FIG. 1E)
Procedure: (§2) Persister killing assay. […] Persister cells of MRSA MW2 or VRSA VRS1 were prepared by growing cultures overnight to stationary phase at 37° C. at 200 rpm and washing three times with PBS. 1 mL of ˜1×10^8 CFU/mL MRSA persisters was added to 1 mL of PBS containing a 2-fold higher concentration of the desired concentration of antibiotics in a 96-well assay block (Corning Costar 3960). For assays with daptomycin, PBS was supplemented with 50 μg/mL CaCl2. The assay block was incubated at 37° C. with shaking at 200 rpm. At various times, 400 μl samples were removed, washed once with PBS, serially diluted and spot-plated on TSA plates. Colonies were counted after overnight incubation at 37° C. to determine the titer of live cells. These experiments were conducted in triplicate.

[4] = test system: stationary-phase MRSA MW2 persisters; test: Persister killing assay; format: cell-based, S. aureus; conditions: for response of MRSA persisters to conventional antibiotics: 100× MIC; for killing / viability of MRSA persisters: in words, 4 h treatment (FIGS. 5, 13, 14, 4B)
Procedure: as §2

18 S. aureus strains = test: MIC assay, S. aureus strains of the panel; format: cell-based; conditions: Staphylococcus aureus; range over the 18 S. aureus strains of the panel (FIG. 6)
Procedure: Bacterial strains and growth conditions. S. aureus strains were grown in tryptic soy broth (TSB) (BD, Franklin Lakes, N.J., USA). E. faecium and E. faecalis strains were grown in brain-heart infusion (BHI) broth (BD, Franklin Lakes, N.J., USA), and four Gram-negative species, Klebsiella pneumoniae, Acinetobacter baumannii, Pseudomonas aeruginosa, and Enterobacter aerogenes were grown in Luria Bertani (LB) broth (BD, Franklin Lakes, N.J., USA). All bacteria were grown at 37° C. at 200 r.p.m.
as §1

MRSA BF1 = test: MIC assay (micro-dilution); format: cell-based, S. aureus; conditions: Staphylococcus aureus
Procedure: as §1
(§3) Antimicrobial activity of each analog was tested against four MRSA strains (MW2, BF1, BF2, and BF3), Pseudomonas aeruginosa (PA14), Klebsiella pneumonia (WGLW2), and Acinetobacter baumannii (ATCC 17978).

MRSA BF2 = test: MIC assay (micro-dilution); format: cell-based, S. aureus; conditions: Staphylococcus aureus
Procedure: as §1, §3

MRSA BF3 = test: MIC assay (micro-dilution); format: cell-based, S. aureus; conditions: Staphylococcus aureus
Procedure: as §1, §3

MRSA MW2 [5] = test: MIC assay (micro-dilution); format: cell-based, S. aureus; conditions: Staphylococcus aureus
Procedure: as §1, §3

K. pneumoniae WGLW2 = test: MIC assay (micro-dilution); format: cell-based, Klebsiella pneumonia; conditions: Klebsiella pneumoniae
Procedure: as §1, §3

A. baumannii ATCC 17978 = test: MIC assay (micro-dilution); format: cell-based; conditions: Acinetobacter baumannii, ATCC17978
Procedure: as §1, §3

P. aeruginosa PA14 = test: MIC assay (micro-dilution); format: cell-based; conditions: Pseudomonas aeruginosa
Procedure: as §1, §3

S. aureus MW2 = test: Membrane fluidity assay (Laurdan GP); format: cell-based; conditions: 32 μg/mL (FIG. 4), in words
Procedure: Membrane fluidity assay. Bacterial membrane fluidity was estimated by slightly modifying previously described methods. An overnight culture of S. aureus MW2 was diluted 1:1,000 in 25 mL TSB. The diluted culture was grown to OD600˜1.5 at 37° C. with shaking at 200 rpm, followed by 10 min incubation with 10 μM Laurdan at room temperature in the dark (Sigma-Aldrich, Cat # 40227). The stained cell culture was washed with PBS 4 times and concentrated 2 times. 100 μL of the 2-fold concentrated culture was mixed with 100 μL of phosphate buffered saline (PBS) containing twice the desired concentrations of compounds in black, clear-bottom, 96-well plates (Corning no. 3904). After 1 h incubation at room temperature in the dark, the Laurdan fluorescence intensities were measured using a spectrophotometer (SpectraMax M2, Molecular Devices) with emission wavelengths of 435 nm and 490 nm upon excitation at 350 nm. The Laurdan GP was calculated using the formula GP=(I435−I490)/(I435+I490). All experiments were conducted in biological triplicate.

| Molecule | antimicrobial activity compared with bithionol (MRSA MW2 [2]) | membrane activity compared with bithionol (MRSA MW2 cells) | melting point [°C] | killing / viability of MRSA persisters [4] | SYTOX Green membrane permeabilization (MRSA MW2 cells) | further results |
| --- | --- | --- | --- | --- | --- | --- |
| CN[C@H](CC(C)C)C(=O)N[C@H]1C(=O)N[C@@H](CC(N)=O)C(=O)N[C@H]2C(=O)N[C@H]3C(=O)N[C@H](C(=O)N[C@H](C(=O)O)c4cc(O)cc(O)c4-c4cc3ccc4O)[C@H](O)c3ccc(c(Cl)c3)Oc3cc2cc(c3O[C@@H]2O[C@H](CO)[C@@H](O)[C@H](O)[C@H]2O[C@H]2C[C@](C)(N)[C@H](O)[C@H](C)O2)Oc2ccc(cc2Cl)[C@H]1O [vancomycin] | – | – | – | – | – | effect on MRSA CFUs in the mouse thigh [1]: did not significantly reduce |
| Oc1c(Cl)cc(Br)cc1Sc1cc(Br)cc(Cl)c1O [BT-pBr, 6,6′-thio-bis-(4-bromo-2-chlorophenol)] | similar | similar | 200 to 202 | – | – | – |
| Oc1c(F)cc(F)cc1Sc1cc(F)cc(F)c1O [BT-opF, 6,6′-thio-bis-(2,4-difluorophenol)] | slightly reduced | slightly reduced | 127 to 130 | – | – | – |
| gentamicin | – | – | – | – | – | effect on MRSA CFUs in the mouse thigh [1]: did not significantly reduce |
| CC(=O)NC[C@H]1CN(c2ccc(N3CCOCC3)c(F)c2)C(=O)O1 [linezolid] | – | – | – | – | – | activity against VRSA VRS1 persisters [3]: no; response of MRSA persisters to conventional antibiotics [4]: high level of tolerance |
| CCCCCCCCCC(=O)N[C@@H](Cc1c[nH]c2ccccc12)C(=O)N[C@H](CC(N)=O)C(=O)N[C@@H](CC(=O)O)C(=O)N[C@@H]1C(=O)NCC(=O)N[C@@H](CCCN)C(=O)N[C@@H](CC(=O)O)C(=O)N[C@H](C)C(=O)N[C@@H](CC(=O)O)C(=O)NCC(=O)N[C@H](CO)C(=O)N[C@@H]([C@H](C)CC(=O)O)C(=O)N[C@@H](CC(=O)c2ccccc2N)C(=O)O[C@@H]1C [daptomycin] | – | – | – | does not kill MRSA persisters | does not induce rapid SYTOX Green membrane permeabilization | MIC (18 S. aureus strains): 0.5 to 8 µg/mL (≈ 0.309 to 4.94 µM); activity against VRSA VRS1 persisters [3]: nominal activity; response of MRSA persisters to conventional antibiotics [4]: high level of tolerance |
| NCCOc1c(Cl)cc(Cl)cc1Sc1cc(Cl)cc(Cl)c1OCCN [Compound 1] | – | – | – | – | – | MIC (MRSA BF1): 64 µg/mL (≈ 145 µM); MIC (MRSA BF2): 64 µg/mL (≈ 145 µM); MIC (MRSA BF3): 32 µg/mL (≈ 72.4 µM); MIC (MRSA MW2 [5]): 64 µg/mL (≈ 145 µM); MIC (K. pneumoniae WGLW2): 64 µg/mL (≈ 145 µM); MIC (A. baumannii ATCC 17978): 64 µg/mL (≈ 145 µM); MIC (P. aeruginosa PA14): > 64 µg/mL |
| Oc1c(Br)cc(Cl)cc1Sc1cc(Cl)cc(Br)c1O [BT-oBr, 6,6′-thio-bis-(2-bromo-4-chlorophenol)] | similar | similar | 178 to 180 | – | – | – |
| Oc1c(F)cc(Cl)cc1Sc1cc(Cl)cc(F)c1O [BT-oF, 6,6′-thio-bis-(4-chloro-2-fluorophenol)] | slightly reduced | slightly reduced | 159 to 161 | do not kill them | permeabilize MRSA persister cell membranes | – |
| COc1c(Cl)cc(Cl)cc1Sc1cc(Cl)cc(Cl)c1OC [BT-OMe, bis-(3,5-Dichloro-2-methoxyphenyl)-sulfane] | complete nullification | complete nullification | – | – | – | – |
| [O-][S+](c1cc(Cl)cc(Cl)c1O)c1cc(Cl)cc(Cl)c1O [bitin-S] | decreased antimicrobial activity | reduced membrane activity | – | do not kill them | permeabilize MRSA persister cell membranes | MIC (MRSA MW2 [2]; bithionol analogs (FIGS. 5 and 13), strain not given): 8 µg/mL (≈ 21.5 µM); change in membrane fluidity (Laurdan GP) (S. aureus MW2): do not cause the change in membrane fluidity |
| Oc1c(Cl)cc(F)cc1Sc1cc(F)cc(Cl)c1O [BT-pF, 6,6′-thio-bis-(2-chloro-4-fluorophenol)] | slightly reduced | slightly reduced | 140 to 142 | do not kill them | permeabilize MRSA persister cell membranes | – |
| Oc1c(Br)cc(Br)cc1Sc1cc(Br)cc(Br)c1O [BT-opBr, 6, 6′-thio-bis-(2,4-dibromophenol)] | similar | similar | 164 to 166 | – | – | – |
